Assay results published in patent US20100223839A1, “SYSTEMS AND PROCESSES FOR PRODUCING BIO-FUELS FROM LIGNOCELLULOSIC MATERIALS” (WASHINGTON STATE UNIVERSITY, priority 2009, published 2010).

System: Saccharomyces cerevisiae
Assay: Toxic effect of selected bio-oil model compounds on yeast growth (inhibition rate)
Format: cell-based
Set-up: inhibition rate: unit not given here
Conditions: for inhibition of yeast growth, summary in words: summary of Table 4
Excerpt: The nature and the range of lethal concentrations of many of these toxic compounds was not well known. Thus, we carried out tests with model compounds to identify which of them were toxic to yeasts.
The toxic effects of selected bio-oil compounds (acetic acid, propanoic acid, cyclopentanone, 2-furaldehyde, furfuryl alcohol, phenol, eugenol, acetol, 2-(5H)-furanone, stilbene, vanillin, syringaldehyde, o-cresol) on Saccharomyces cerevisiae were studied.

[1] = compound at 25% of CFBO (concentration found in bio-oils; Mallee fast pyrolysis oil, 500° C.)
[2] = compound at 50% of CFBO (concentration found in bio-oils; Mallee fast pyrolysis oil, 500° C.)
[3] = compound at 75% of CFBO (concentration found in bio-oils; Mallee fast pyrolysis oil, 500° C.)
[4] = compound at 100% of CFBO (concentration found in bio-oils; Mallee fast pyrolysis oil, 500° C.)

O=C1C=CCO1 [2-(5H)-Furanone]
inhibition of yeast growth, summary in words: also inhibitors but their inhibition rate is much lower

O=Cc1ccco1 [2-furaldehyde]
inhibition of yeast growth, summary in words: also inhibitors but their inhibition rate is much lower

CC(=O)O [Acetic acid]
inhibition of yeast growth, summary in words: most lethal compounds inhibiting yeast growth

CC(=O)CO [Acetol]
inhibition rate [1]: 44.17
inhibition rate [2]: 77.80
inhibition rate [3]: 78.93
inhibition rate [4]: 80.07

C=CCc1ccc(O)c(OC)c1 [Eugenol]
inhibition of yeast growth, summary in words: most lethal compounds inhibiting yeast growth

OCc1ccco1 [Furfuryl alcohol]
inhibition of yeast growth, summary in words: also inhibitors but their inhibition rate is much lower

Cc1ccccc1O [O-cresol]
inhibition rate [1]: 2.61
inhibition rate [2]: 14.16
inhibition rate [3]: 23.38
inhibition rate [4]: 31.22

Cc1ccccc1C [O-xylol]
inhibition rate [1]: 5.01
inhibition rate [2]: 5.23
inhibition rate [3]: 5.33
inhibition rate [4]: 5.44

CCCCCCCCCCCCCCC [Petadecane]
inhibition of yeast growth, summary in words: also inhibitors but their inhibition rate is much lower

Oc1ccccc1 [Phenol]
inhibition of yeast growth, summary in words: most lethal compounds inhibiting yeast growth

CCC(=O)O [Propanoic acid]
inhibition of yeast growth, summary in words: most lethal compounds inhibiting yeast growth

Oc1ccccc1O [Pyrocatechol]
inhibition of yeast growth, summary in words: most lethal compounds inhibiting yeast growth

COc1cc(C=O)cc(OC)c1O [Syringaldehyde]
inhibition of yeast growth, summary in words: most lethal compounds inhibiting yeast growth

CCCCCCCCCCCCCC [Tetradecane]
inhibition of yeast growth, summary in words: also inhibitors but their inhibition rate is much lower

COc1cc(C=O)ccc1O [Vanillin]
inhibition of yeast growth, summary in words: most lethal compounds inhibiting yeast growth
